Patent publication US9403798B2, “Triazinone compound and T-type calcium channel inhibitor” (NISSAN CHEMICAL INDUSTRIES, LTD., priority 2012, dated 2016)
pIC50: −log10 of the molar value. Blank lines part the entries; values can stand above or below the compound they belong to.

Molecular target: T1, Human T-type calcium channel (Cav 3.2) (Homo sapiens, UniProt O95180)
T1 construct: Edward Perez-Reyes, University of Virginia, USA; host or cells: HEK293
Test: Calcium Influx Inhibition Assay
Assay type: cell-based
Settings: Human T-type calcium channel (Cav 3.2) expressing HEK293 cells, FLIPR Calcium 4 fluorescence
Protocol: 1. Calcium Influx Inhibition Assay
Human T-type calcium channel (Cav 3.2) expressing HEK293 cells were obtained from Prof. Edward Perez-Reyes, University of Virginia, USA. The calcium-sensitive fluorescent dye used was FLIPR Calcium 4 Assay Kit (Molecular Devices). To a black 96-well plate with a clear bottom coated with type I collagen, the human T-type calcium channel (Cav 3.2) expressing HEK293 cells were seeded and cultured overnight, and the culture medium was removed. A solution of the calcium-sensitive fluorescent dye was added, and the plate was incubated at 37° C. in an atmosphere of 5% carbon dioxide for 30 minutes. To the plate, a diluted solution of a compound was added, and the whole was further incubated at 37° C. in an atmosphere of 5% carbon dioxide for 30 minutes. While fluorescence was continuously analyzed from the bottom with a FlexStation 3 (Molecular Devices), a calcium solution was added. […] From the rise in the fluorescence from the base line, the inhibition percentage was calculated. The logarithms of compound concentrations were plotted with respect to the inhibition activities to give an IC50 value.

T1 sequence (O95180 whole entry): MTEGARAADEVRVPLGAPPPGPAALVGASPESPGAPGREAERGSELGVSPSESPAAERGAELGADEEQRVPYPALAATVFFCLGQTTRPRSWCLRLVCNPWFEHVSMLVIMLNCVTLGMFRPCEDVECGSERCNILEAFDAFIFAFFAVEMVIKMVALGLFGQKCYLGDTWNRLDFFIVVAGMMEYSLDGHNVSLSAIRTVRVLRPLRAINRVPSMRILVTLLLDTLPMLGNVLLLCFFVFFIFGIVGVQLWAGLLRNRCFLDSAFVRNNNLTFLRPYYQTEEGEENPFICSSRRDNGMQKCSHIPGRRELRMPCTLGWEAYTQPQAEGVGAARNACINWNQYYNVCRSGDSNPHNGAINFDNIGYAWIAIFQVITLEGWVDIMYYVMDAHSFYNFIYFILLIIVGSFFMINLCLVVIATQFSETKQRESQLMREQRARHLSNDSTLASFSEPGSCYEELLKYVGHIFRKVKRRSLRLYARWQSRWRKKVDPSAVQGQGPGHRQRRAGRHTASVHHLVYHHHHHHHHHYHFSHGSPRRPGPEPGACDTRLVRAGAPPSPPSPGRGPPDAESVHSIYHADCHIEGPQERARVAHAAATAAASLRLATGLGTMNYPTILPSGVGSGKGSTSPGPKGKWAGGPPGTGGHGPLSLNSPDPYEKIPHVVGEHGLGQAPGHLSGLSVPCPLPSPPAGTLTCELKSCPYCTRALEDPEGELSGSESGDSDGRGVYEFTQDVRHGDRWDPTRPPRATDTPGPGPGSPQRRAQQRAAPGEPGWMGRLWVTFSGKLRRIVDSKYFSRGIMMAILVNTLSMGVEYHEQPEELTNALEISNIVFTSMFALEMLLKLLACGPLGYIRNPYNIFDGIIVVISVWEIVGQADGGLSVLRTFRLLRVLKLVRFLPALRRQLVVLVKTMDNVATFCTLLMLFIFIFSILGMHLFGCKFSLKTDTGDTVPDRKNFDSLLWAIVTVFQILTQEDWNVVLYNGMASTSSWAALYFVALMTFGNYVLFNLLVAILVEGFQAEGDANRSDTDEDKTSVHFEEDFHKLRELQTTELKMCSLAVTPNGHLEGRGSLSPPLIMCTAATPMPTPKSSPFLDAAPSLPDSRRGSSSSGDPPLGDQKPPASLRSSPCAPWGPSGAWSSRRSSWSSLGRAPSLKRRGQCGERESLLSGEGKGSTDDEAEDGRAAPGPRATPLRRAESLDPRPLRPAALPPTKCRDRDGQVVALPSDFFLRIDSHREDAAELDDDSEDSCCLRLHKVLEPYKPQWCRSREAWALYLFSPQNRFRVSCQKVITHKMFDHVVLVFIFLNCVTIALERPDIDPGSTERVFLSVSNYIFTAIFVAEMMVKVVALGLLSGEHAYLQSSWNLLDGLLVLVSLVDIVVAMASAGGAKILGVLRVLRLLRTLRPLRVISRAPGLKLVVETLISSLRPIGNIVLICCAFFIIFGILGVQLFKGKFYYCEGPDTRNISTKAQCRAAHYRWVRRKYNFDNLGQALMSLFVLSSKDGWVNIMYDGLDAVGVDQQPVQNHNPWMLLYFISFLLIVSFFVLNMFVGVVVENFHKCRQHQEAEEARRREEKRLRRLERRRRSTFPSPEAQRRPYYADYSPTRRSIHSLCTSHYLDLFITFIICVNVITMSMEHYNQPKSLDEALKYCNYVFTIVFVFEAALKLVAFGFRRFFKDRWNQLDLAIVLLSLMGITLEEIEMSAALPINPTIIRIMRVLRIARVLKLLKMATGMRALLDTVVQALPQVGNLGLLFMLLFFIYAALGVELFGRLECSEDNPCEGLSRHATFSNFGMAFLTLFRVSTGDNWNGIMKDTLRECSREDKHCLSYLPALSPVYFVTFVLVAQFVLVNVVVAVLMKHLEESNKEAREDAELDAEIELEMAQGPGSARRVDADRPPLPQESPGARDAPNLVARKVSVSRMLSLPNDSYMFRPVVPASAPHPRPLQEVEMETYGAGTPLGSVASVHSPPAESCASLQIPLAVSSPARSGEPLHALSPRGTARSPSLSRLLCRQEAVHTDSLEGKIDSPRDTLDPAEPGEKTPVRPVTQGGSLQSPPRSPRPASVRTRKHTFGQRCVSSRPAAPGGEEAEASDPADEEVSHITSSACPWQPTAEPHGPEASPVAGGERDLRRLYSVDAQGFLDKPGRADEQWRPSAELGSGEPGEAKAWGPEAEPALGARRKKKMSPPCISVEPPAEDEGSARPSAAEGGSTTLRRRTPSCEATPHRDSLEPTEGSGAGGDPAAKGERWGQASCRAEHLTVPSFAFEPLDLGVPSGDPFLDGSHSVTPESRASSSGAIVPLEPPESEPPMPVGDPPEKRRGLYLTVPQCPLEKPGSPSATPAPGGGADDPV

SMILES: COc1nc(C2=CCN(c3ncn(Cc4ccc(C(F)(F)F)s4)c(=O)n3)C[C@@H]2O)ccc1Cl [compound 329]
- pIC50: 8.32

SMILES: Cc1cc(C2=CCN(c3ncn(Cc4ccc(C(F)(F)F)s4)c(=O)n3)C[C@@H]2O)cs1 [compound 333]
- pIC50: 8.74

SMILES: CC(C)(C)c1ccc(Cn2cnc(N3CCN(c4ccc(F)cc4)CC3)nc2=O)cc1 [compound 5]
- pIC50: 7.25

SMILES: O=c1nc(N2CCN(c3ccc(F)cc3)CC2)ncn1Cn1ccc(C2CCCCC2)n1 [compound 27]
- pIC50: 6.82

SMILES: O=c1nc(N2CC=C(c3ccc(F)cc3)CC2)ncn1Cc1ccc(OCC(F)(F)F)cc1 [compound 468]
- pIC50: 7.17

SMILES: Cc1cc(C2=CCN(c3ncn(Cc4ccc(C(F)(F)F)s4)c(=O)n3)CC2)sn1 [compound 275]
- pIC50: 7.52

SMILES: O=c1nc(N[C@@H]2CCCN(c3ccc(F)cc3)C2)ncn1Cc1ccc(Cl)cc1 [compound 82]
- pIC50: 6.92

SMILES: O=c1nc(N2CCN(c3ccc(F)cc3)CC2)ncn1Cc1cccc(C(F)(F)F)c1 [compound 8]
- pIC50: 6.85

SMILES: O=c1nc(N2CC=C(c3ccc(F)cc3)CC2)ncn1Cc1ccc(OCC(F)(F)F)nn1 [compound 162]
- pIC50: 6.22

SMILES: Cc1cc(N2CCN(c3ncn(Cc4ccc(C(F)(F)F)o4)c(=O)n3)CC2)cs1 [compound 436]
- pIC50: 6.48

SMILES: Cc1nc(N2CC=C(c3ccc(F)cc3)[C@@H](N)C2)nc(=O)n1Cc1ccc(C(F)(F)F)s1 [compound 348]
- pIC50: 8.35

SMILES: O=c1nc(N2CCN(c3ccc(F)cc3)CC2)ncn1Cc1ccc(C(F)(F)F)s1 [compound 25]
- pIC50: 7.60

SMILES: Cc1nc(N2CC=C(c3ccc(F)cc3)C3(COCOC3)C2)nc(=O)n1Cc1ccc(C(F)(F)F)s1 [compound 486]
- pIC50: 6.39

SMILES: COc1nc(C2=CCN(c3ncn(Cc4ccc(C(C)(C)C)s4)c(=O)n3)C[C@@H]2O)ccc1Cl [compound 413]
- pIC50: 8.16

SMILES: Cc1nc(N2CC3CCC(C2)N3c2ccc(F)cc2)nc(=O)n1Cc1ccc(C(F)(F)F)s1 [compound 380]
- pIC50: 6.51

SMILES: CN(C)Cc1nc(N2CCN(c3ccc(F)cc3)CC2)nc(=O)n1Cc1ccc(C(F)(F)F)s1 [compound 462]
- pIC50: 6.21

SMILES: O=c1nc(N[C@@H]2CCO[C@H](c3ccc(F)cc3)C2)ncn1Cc1ccc(C(F)(F)F)s1 (racemic) [compound 307]
- pIC50: 6.57

SMILES: Cc1nc(Nc2nc(-c3ccc(F)c(F)c3)cs2)nc(=O)n1Cc1ccc(C(F)(F)F)s1 [compound 383]
- pIC50: 7.05

SMILES: O=c1nc(N2CCN(c3ccc(Cl)cc3F)CC2)ncn1Cn1ccc(C(F)(F)F)n1 [compound 60]
- pIC50: 6.38

SMILES: O=c1nc(N2CC=C(c3ccc(F)cc3)CC2)ncn1Cc1ccc2c(c1)CCCO2 [compound 178]
- pIC50: 7.22

SMILES: Cc1nc(N2CC=C(c3ccc(F)cc3)[C@@H](O)C2)nc(=O)n1Cc1ccc(C(F)(F)C(F)(F)F)s1 [compound 454]
- pIC50: 8.72

SMILES: Cc1nc(N2CC=C(c3ccc(F)cc3)C(CO)C2)nc(=O)n1Cc1ccc(C(F)(F)F)s1 (stereo not shown) [compound 379]
- pIC50: 7.27

SMILES: O=c1nc(N2CC=C(c3ccc(F)cc3)[C@@H](O)C2)ncn1Cc1ccc(C(F)(F)F)s1 [compound 315]
- pIC50: 9.34

SMILES: O=c1nc(N2CC=C(c3ccc4ocnc4c3)CC2)ncn1Cc1ccc(C(F)(F)F)s1 [compound 295]
- pIC50: 6.74

SMILES: Cc1cc(C2=CCN(c3nc(C)n(Cc4cnc(C(F)(F)F)s4)c(=O)n3)C[C@@H]2O)cs1 [compound 493]
- pIC50: 8.43

SMILES: Cc1nc(N2CC=C(c3ccc(F)cc3)[C@@H](O)C2)nc(=O)n1Cc1ccc(OS(=O)(=O)C(F)(F)F)cc1 [compound 213]
- pIC50: 8.47

SMILES: O=c1nc(N2CC=C(c3ccc(F)cc3)[C@H](O)C2)ncn1Cc1ccc(C(F)(F)F)s1 [compound 316]
- pIC50: 8.64

SMILES: CC(=O)NC1CN(c2ncn(Cc3ccc(C(F)(F)F)s3)c(=O)n2)CC=C1c1ccc(F)cc1 (stereo not shown) [compound 317]
- pIC50: 7.25

The remaining lines, values ahead:

- pIC50: 9.03
SMILES: Cc1nc(N2CC=C(c3ccc(F)cc3)[C@@H](O)C2)nc(=O)n1Cc1ccc(C(F)(F)F)s1 [compound 342]

- pIC50: 7.06
SMILES: COc1nc(N2CCN(c3ccc(F)cc3)CC2)nc(=O)n1Cc1ccc(OCc2ccc(Cl)cc2)cc1 [compound 66]

- pIC50: 6.39
SMILES: Cc1nc(N2CCN(c3ccccc3)CC(F)(F)C2)nc(=O)n1Cc1ccc(C(F)(F)F)s1 [compound 377]

- pIC50: 8.40
SMILES: Cc1csc(C2=CCN(c3ncn(Cc4ccc(C(F)(F)F)s4)c(=O)n3)C[C@@H]2O)c1 [compound 327]

- pIC50: 7.89
SMILES: Cc1cc(N2CCN(c3nc(C)n(Cc4ccc(C(F)(F)F)s4)c(=O)n3)CC2)cs1 [compound 357]

- pIC50: 7.24
SMILES: O=c1nc(N[C@@H]2CCN(c3ccc(F)cc3)C2)ncn1Cc1ccc(C(F)(F)F)s1 [compound 224]

- pIC50: 7.39
SMILES: CC(C)(C)c1ccc(Cn2cnc(N3CC=C(c4ccc(F)cc4)CC3)nc2=O)cc1 [compound 183]

- pIC50: 6.07
SMILES: Cc1nc(N2CCN(C34CC5CC(CC(C5)C3)C4)CC2)nc(=O)n1Cc1ccc(C(F)(F)F)s1 [compound 382]

- pIC50: 6.36
SMILES: O=c1nc(N2CCN(c3ccc(SC(F)(F)F)cc3)CC2)ncn1Cn1ccc(C(F)(F)F)n1 [compound 43]

- pIC50: 7.12
SMILES: O=C1CCc2cc(C3=CCN(c4ncn(Cc5ccc(C(F)(F)F)s5)c(=O)n4)CC3)ccc21 [compound 269]

- pIC50: 8.00
SMILES: O=c1nc(N2CC=C(c3ccc(F)cc3)C(O)C2)ncn1Cn1ccc(C(F)(F)C(F)(F)F)n1 (stereo not shown) [compound 194]

- pIC50: 7.70
SMILES: O=c1nc(N2CC=C(c3ccc(F)cc3)C(O)C2)ncn1Cc1ccc(C2CCCO2)s1 (stereo not shown) [compound 196]

- pIC50: 7.30
SMILES: O=c1nc(N2CCN(c3ccc(F)cc3)CC2)ncn1Cc1cc2cc(Cl)ccc2o1 [compound 18]

- pIC50: 7.34
SMILES: COc1nc(C2=CCN(c3nc(C)n(Cc4ccc(OS(=O)(=O)C(F)(F)F)nc4)c(=O)n3)C[C@@H]2O)ccc1Cl [compound 450]

- pIC50: 7.55
SMILES: O=c1nc(N2CC=C(c3ccc(F)c(F)c3)CC2)ncn1Cc1ccc(C(F)(F)F)s1 [compound 264]

- pIC50: 8.16
SMILES: Cc1nc(N2CC=C(c3ccc(F)cc3)[C@@H](O)C2)nc(=O)n1Cc1ccc(C(F)(F)F)o1 [compound 439]

- pIC50: 7.80
SMILES: Cc1ccc(C2=CCN(c3nc(C)n(Cc4ccc(OS(=O)(=O)C(F)(F)F)nc4)c(=O)n3)C[C@@H]2O)cc1F [compound 448]

- pIC50: 8.77
SMILES: COc1nc(C2=CCN(c3nc(C)n(Cc4ccc(Br)s4)c(=O)n3)C[C@@H]2O)ccc1Cl [compound 395]

- pIC50: 6.10
SMILES: Cc1ccccc1N1CCN(c2ncn(Cn3ccc(C(F)(F)F)n3)c(=O)n2)CC1 [compound 59]

- pIC50: 6.40
SMILES: Cc1nc(N2CCN(c3ccc(F)cc3)CC2)nc(=O)n1CC12CC3CC(CC(C3)C1)C2 [compound 461]

- pIC50: 8.44
SMILES: NC1CN(c2ncn(Cc3ccc(C(F)(F)F)s3)c(=O)n2)CC=C1c1ccc(F)cc1 (stereo not shown) [compound 321]

- pIC50: 6.26
SMILES: CC(C)(C)OC(=O)N1C[C@@H](CNc2ncn(Cc3ccc(C(F)(F)F)s3)c(=O)n2)[C@H](c2ccc(F)cc2)C1 [compound 312]

- pIC50: 6.28
SMILES: O=c1nc(N[C@@H]2CO[C@H](c3ccc(F)cc3)C2)ncn1Cc1ccc(C(F)(F)F)s1 (racemic) [compound 309]

- pIC50: 6.68
SMILES: Cc1cccc(N2CCN(c3ncn(Cn4ccc(C(F)(F)F)n4)c(=O)n3)CC2)c1 [compound 39]

- pIC50: 7.34
SMILES: CS(=O)(=O)NC1CN(c2ncn(Cc3ccc(C(F)(F)F)s3)c(=O)n2)CC=C1c1ccc(F)cc1 (stereo not shown) [compound 314]

- pIC50: 6.49
SMILES: O=c1nc(N2CCN(c3ccc(F)cc3)CC2)ncn1Cc1csc(C(F)(F)F)n1 [compound 29]

- pIC50: 6.89
SMILES: O=c1nc(N2CCC(c3ccc(F)cc3)CC2)ncn1Cc1ccc(Cl)cc1 [compound 114]

- pIC50: 8.12
SMILES: CC(F)(F)c1ccc(Cn2cnc(N3CC=C(c4ccc(F)cc4)[C@@H](O)C3)nc2=O)s1 [compound 207]

- pIC50: 7.35
SMILES: N#Cc1cc(C2=CCN(c3ncn(Cc4ccc(C(F)(F)F)s4)c(=O)n3)CC2)ccc1F [compound 278]

- pIC50: 7.40
SMILES: Cc1cc(F)ccc1C1=CCN(c2nc(C)n(Cc3ccc(C(C)(C)C)s3)c(=O)n2)C[C@@H]1O [compound 423]

- pIC50: 6.46
SMILES: COc1cncc(C2=CCN(c3ncn(Cc4ccc(C(F)(F)F)s4)c(=O)n3)CC2)n1 [compound 272]

- pIC50: 7.92
SMILES: O=c1nc(N2CC=C(c3ccc(F)cc3)C(O)C2)ncn1Cc1ccc(OS(=O)(=O)C(F)(F)F)nc1 (stereo not shown) [compound 189]

- pIC50: 8.82
SMILES: Cc1csc(C2=CCN(c3nc(C)n(Cc4ccc(C(F)(F)F)s4)c(=O)n3)C[C@@H]2O)c1 [compound 362]

- pIC50: 7.48
SMILES: O=c1nc(N[C@H]2C[C@@H](c3ccc(F)cc3)C2)ncn1Cc1ccc(C(F)(F)F)s1 [compound 318]

- pIC50: 6.24
SMILES: O=c1nc(N2CCC(c3ccc(F)cc3)C(F)(F)C2)ncn1Cc1ccc(Cl)cc1 (stereo not shown) [466b]

- pIC50: 6.49
SMILES: CC1CC(F)(c2ccc(F)cc2)CCN1c1ncn(Cc2ccc(Cl)cc2)c(=O)n1 (stereo not shown) [compound 134]

- pIC50: 7.28
SMILES: O=c1nc(N2CCN(c3ccc(F)cc3)CC2)nc(CO)n1Cc1ccc(C(F)(F)F)s1 [458b]

- pIC50: 6.64
SMILES: COc1nc(N2CCN(c3ccc(F)cc3)CC2)nc(=O)n1Cc1ccc(Cl)cc1 [compound 31]

- pIC50: 8.26
SMILES: Cc1nc(N2CC=C(c3ccc(F)cc3)[C@@H](O)C2)nc(=O)n1Cc1cnc(C(F)(F)F)s1 [compound 219]
